Results: US20240197683A1 (JIANGSU UNIVERSITY, priority 2023, published 2024)
Counter-ions that a name gives are not always drawn. Like-named read-outs stand apart in the source and are kept apart here.

How the values were obtained:
[1] = test system: mice with sepsis-related acute lung injury; assay: Sepsis-related acute lung injury in mice (BALF, leakage, arterial oxygen); format: in vivo
From the text: Comparisons of data between the four groups are of statistical significance.
Changes in the protein content of mouse BALF, the Evans blue content and the wet/dry weight ratio are shown. […] There is a downward trend in the arterial partial pressure of oxygen in all the injury group mice relative to the normal mice.

[2] = test system: mice with LPS-induced sepsis; details: 20 mg/kg LPS i.p.; for average survival time: LPS group 28.8±6.22 h
Protocol: Method: A mouse model of sepsis was induced by intraperitoneal injection of different toxic doses of 5 mg/kg, 10 mg/kg and 20 mg/kg LPS, and the effects of different doses of LPS on the survival rate of mice with sepsis were observed.
Sepsis was induced by intraperitoneal injection of 5 mg/kg, 10 mg/kg and 20 mg/kg LPS. […] Sepsis was induced by intraperitoneal injection of 20 mg/kg LPS.

[3] = test system: IL-6, IL-1β and TNF-α in mouse serum; assay: Inflammatory factors in blood of mice with sepsis at different time points; format: in vivo
A549 cells = details: co-treatment with TNF-α or H2O2; cited from earlier work
[4] = test system: mice with sepsis-related acute lung injury; assay: Efficacy of HucMSC-NVs loaded with ergothioneine in sepsis-related acute lung injury; format: in vivo; details: FIG. 11 A-C
From the text: Referring to FIG. 11, three classical inflammatory factors (IL-1β, IL-6, and TNF-α) in BALF are shown in panels A-C.

[5] = test system: mice with LPS-induced sepsis; assay: Edema in organs (wet/dry weight ratio) of mice with sepsis; format: in vivo; details: prevention
cytokine-infused rats = details: cited from earlier work
[6] = test system: TLR-4/MyD88/NF-κB signaling pathway; assay: Related gene expression in lung tissues of mice with sepsis; format: in vivo; details: after treatment and prevention
From the text: The differences are of statistical significance.

[7] = prevention: tail vein injection 1 h before 20 mg/kg LPS i.p., FIG. 3
[8] = treatment: tail vein injection 2 h after 20 mg/kg LPS i.p., FIG. 4

SMILES: C[N+](C)(C)[C@@H](Cc1c[nH]c(=S)[nH]1)C(=O)[O-] [ergothioneine, (S)-α-Carboxy-N,N,N-trimethyl-2-mercapto-1H-imidazole-4-ethanaminium inner salt]
- arterial partial pressure of oxygen ([1]; different concentrations of EGT, FIG. 7 G): significantly improved
- inflammatory factor levels in BALF (IL-1β, IL-6 and TNF-α) ([1]; four groups with different concentrations of ergothioneine, FIG. 7 A-C): reduced inflammatory factor levels in BALF
- average survival time ([2]; 5 mg/kg ergothioneine): 41.4 ± 10.48 h
- average survival time ([2]; 10 mg/kg ergothioneine): 44.4 ± 3.921 h
- mortality in mice with sepsis ([2]; FIG. 2): reduced mortality
- average survival time ([2]; 50 mg/kg ergothioneine): 46.8 ± 2.68 h
- mice died ([2]; prevention, 5 mg/kg ergothioneine): 2 mice
- mice died ([2]; prevention, 10 mg/kg ergothioneine): 3 mice
- mice died ([2]; prevention, 20 mg/kg ergothioneine): all
- mice died ([2]; prevention, 50 mg/kg ergothioneine): 1 mouse
- mice died ([2]; treatment, 5 mg/kg ergothioneine): all
- mice died ([2]; treatment, 10 mg/kg ergothioneine): all
- mice died ([2]; treatment, 20 mg/kg ergothioneine): 4 mice
- mice died ([2]; treatment, 50 mg/kg ergothioneine): 3 mice
- IL-1β release in blood [3, 7]: significantly reduced
- IL-6 release in blood [3, 7]: significantly reduced
- IL-6 release in blood [3, 8]: significantly reduced
- TNF-α release in blood [3, 8]: significantly reduced
- GSH level (A549 cells): protected the cells from decreases in the GSH level
- NF-κB activation (A549 cells): inhibited NF-κB activation
- level of inflammatory factors in BALF (IL-6, TNF-α, IL-1β) [4]: reduced the level of inflammatory factors in BALF
- kidney edema [5]: not significantly ameliorated
- acute lung injury (cytokine-infused rats): reduce acute lung injury
- TLR-4 gene expression ([6]; FIG. 9 A): significantly down-regulated
- MyD88 gene expression ([6]; FIG. 9 B): significantly down-regulated
- NF-κB gene expression ([6]; FIG. 9 C): significantly down-regulated
